PubChem BioAssay (NCI)
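96-well plates; 48 h exposure; 5 concentrations. Endpoints by linear interpolation between flanking doses. Not reached: highest tested concentration assigned. GI50 = concentration required for 50% inhibition of growth. Definition used: TGI = concentration required for complete inhibition of growth.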

Experiments:
Assay in all cases: inhibition of tumour cell growth, NCI panel, 48 h
[1] = system: DLD-1 colon
[2] = system: M19-MEL melanoma
[3] = system: KM20L2 colon
[4] = system: HOP-18 NSCLC
[5] = system: RXF-631 renal
[6] = system: XF 498 CNS
[7] = system: DMS 273 small cell lung
[8] = system: SNB-78 CNS
[9] = system: MDA-N

| Compound | GI50 [1] [µM] | TGI [1] [µM] | GI50 [2] [µM] | TGI [2] [µM] | GI50 [3] [µM] | TGI [3] [µM] | GI50 [4] [µM] | TGI [4] [µM] | TGI [5] [µM] | TGI [6] [µM] | TGI [7] [µM] | TGI [8] [µM] | TGI [9] [µM] |
| --- | --- | --- | --- | --- | --- | --- | --- | --- | --- | --- | --- | --- | --- |
| CC(=O)[CH-]C(=O)c1ccccc1.CC(=O)[CH-]C(=O)c1ccccc1.CC(=O)[CH-]C(=O)c1ccccc1.[Ga+3] | 16.6 | 53.6 | 13.4 | 30.5 | 18.5 | 42.6 | 18 | 61.5 |  |  |  |  |  |
| CC(=O)C1C(=O)C(=O)N(CCN2C(=O)C(=O)C(C(C)=O)C2=O)C1=O (centres undefined) |  |  |  | > 100 |  | > 100 |  | > 100 | > 100 | > 100 | > 100 |  |  |
| CCN(CC)C(=S)SS(C)(=O)=O |  | 33.3 |  | 30.6 |  |  |  | > 100 |  |  | 36 | 43.7 |  |
| CC(=O)OCC1OC(n2c(=S)n(-c3ccccc3)c(=O)c3cc(Br)ccc32)C(OC(C)=O)C1OC(C)=O (centres undefined) |  | > 100 |  | > 100 |  | > 100 |  | > 100 |  | > 100 | > 100 | > 100 |  |
| Cc1cc(Br)ccc1N=Nc1c(C)nn(-c2ccccc2)c1-c1ccccc1 |  | > 100 |  | > 100 |  |  |  | > 100 |  | > 100 | > 100 | > 100 |  |
| Cc1ccc(S(=O)(=O)NNS(C)(=O)=O)cc1 |  | > 100 |  | > 100 |  | > 100 |  |  |  |  | > 100 |  |  |
| N#Cc1ccc(C2SCc3nc4ccccc4n32)cc1 (centres undefined) |  | > 100 |  | > 100 |  | > 100 |  | > 100 |  | > 100 | > 100 | > 100 |  |
| N=C(CC(=O)Nc1ccccn1)c1ccccc1 |  |  |  |  |  |  |  |  |  |  |  |  | > 100 |
| O=C(N/C(=C\c1ccc(/C=C(\NC(=O)c2ccccc2)c2nc3c(O)nc(S)nc3[nH]2)cc1)c1nc2c(O)nc(S)nc2[nH]1)c1ccccc1 |  | > 100 |  |  |  | > 100 |  | > 100 | > 100 | > 100 | > 100 | > 100 |  |
| CCC(c1ccccc1)c1cc(C(C)(C)C)cc(C(C)(C)C)c1O (centres undefined) |  |  |  |  |  |  |  |  |  |  |  |  | 30.9 |
| NC(=O)c1ncn(C2OC(CO)C(O)C2O)c1O (centres undefined) |  |  |  | > 100 |  | > 100 |  | > 100 | > 100 | > 100 |  | > 100 |  |
| CCN(CC)c1c(C)nnn1C1OC(COC(C)=O)C(OC(C)=O)C(OC(C)=O)C1OC(C)=O (centres undefined) |  | > 100 |  | > 100 |  | > 100 |  | > 100 | > 100 |  |  | > 100 |  |
| CCCCOC(=O)NC(=O)c1cn(CCCOC(=O)CCCCCCCCC(=O)OCCCn2cc(C(=O)NC(=O)OCCCC)c(=O)n(C)c2=O)c(=O)n(C)c1=O |  | > 100 |  | > 100 |  | > 100 |  |  | > 100 | > 100 | > 100 | > 100 |  |
| C=CCSC(C)=O |  |  |  |  |  |  |  |  |  |  |  |  | > 100 |
| Cc1c(-c2ccccn2)ccc2ccccc12 |  |  |  |  |  |  |  |  |  |  |  |  | > 100 |
| CSc1nc(SC)c2c(C)cn(COCCOC(=O)c3ccccc3)c2n1 |  |  |  |  |  |  |  |  |  |  |  |  | > 100 |
| Cc1ccc(Nc2nc(-c3ccc(-c4ccc([N+](=O)[O-])cc4)o3)cs2)cc1 |  | > 100 |  | > 100 |  | > 100 |  |  |  |  | > 100 | > 100 |  |
